In ChEMBL document CHEMBL4433261, “Synthesis of peptidomimetics and chemo-biological tools for CD95/PLCγ1 interaction analysis” (Bioorg Med Chem Lett, 2019):
Activity calls are given as the source filed them. The calls are words filed in the database; no cut-off is given here.

Tests used:
[1] = target: T1, 1-phosphatidylinositol 4,5-bisphosphate phosphodiesterase gamma-1 (Homo sapiens) (UniProt P19174); test: (§1) Binding affinity to human full length Myc-tagged PLCgamma1 transfected in HEK293T cells by pull down assay; type: cell-based
T1 sequence (whole entry): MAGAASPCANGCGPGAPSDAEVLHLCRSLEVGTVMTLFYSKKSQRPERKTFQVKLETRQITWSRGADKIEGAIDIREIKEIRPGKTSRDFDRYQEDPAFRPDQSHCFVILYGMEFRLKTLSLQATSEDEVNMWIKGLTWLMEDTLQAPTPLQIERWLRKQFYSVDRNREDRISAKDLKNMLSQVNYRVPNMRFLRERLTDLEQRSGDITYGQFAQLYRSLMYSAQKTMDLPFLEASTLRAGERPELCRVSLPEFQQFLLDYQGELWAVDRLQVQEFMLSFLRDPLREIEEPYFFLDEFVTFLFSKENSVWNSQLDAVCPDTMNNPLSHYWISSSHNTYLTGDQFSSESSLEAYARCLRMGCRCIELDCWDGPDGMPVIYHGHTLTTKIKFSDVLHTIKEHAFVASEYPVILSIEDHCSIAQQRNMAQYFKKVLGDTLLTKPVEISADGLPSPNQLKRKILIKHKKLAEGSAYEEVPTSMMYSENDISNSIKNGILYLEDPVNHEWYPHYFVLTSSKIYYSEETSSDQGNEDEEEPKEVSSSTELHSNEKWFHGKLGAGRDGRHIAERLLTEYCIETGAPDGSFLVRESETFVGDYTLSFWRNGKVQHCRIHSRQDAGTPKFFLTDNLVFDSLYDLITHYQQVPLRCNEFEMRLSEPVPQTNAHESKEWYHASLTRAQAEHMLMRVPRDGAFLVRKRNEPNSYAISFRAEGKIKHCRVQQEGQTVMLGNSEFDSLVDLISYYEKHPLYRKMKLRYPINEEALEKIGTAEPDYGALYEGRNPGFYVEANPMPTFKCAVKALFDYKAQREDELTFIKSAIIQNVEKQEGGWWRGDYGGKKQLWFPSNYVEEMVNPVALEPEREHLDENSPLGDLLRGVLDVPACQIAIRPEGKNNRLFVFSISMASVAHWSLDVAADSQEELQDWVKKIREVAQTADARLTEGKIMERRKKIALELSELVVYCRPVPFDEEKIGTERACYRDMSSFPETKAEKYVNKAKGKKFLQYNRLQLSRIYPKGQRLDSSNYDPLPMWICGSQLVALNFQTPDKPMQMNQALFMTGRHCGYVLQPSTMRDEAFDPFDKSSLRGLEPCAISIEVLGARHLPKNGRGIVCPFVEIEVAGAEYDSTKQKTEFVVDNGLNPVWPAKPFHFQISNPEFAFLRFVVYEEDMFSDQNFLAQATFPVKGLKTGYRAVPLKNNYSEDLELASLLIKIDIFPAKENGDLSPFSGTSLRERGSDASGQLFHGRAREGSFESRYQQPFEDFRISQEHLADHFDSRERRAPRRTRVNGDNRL

[2] = Inhibition of human full length HA-tagged CD95/human full length Myc-tagged PLCgamma1 protein-protein interaction transfected in HEK293T cells incubated for 4 hrs by renilla luciferase based protein-fragment complementation assay; type: cell-based
[3] = Inhibition of human full length HA-tagged CD95/FADD (unknown origin) protein-protein interaction transfected in HEK293T cells incubated for 4 hrs by renilla luciferase based protein-fragment complementation assay; type: cell-based
Homo sapiens = organism: Homo sapiens; test: Selectivity ratio of IC50 for human full length HA-tagged CD95/FADD (unknown origin) protein-protein interaction to IC50 for human full length HA-tagged CD95/human full length Myc-tagged PLCgamma1 protein-protein interaction
CCRF-CEM = test: Cytotoxicity in human CEM cells assessed as reduction in cell viability incubated for 24 hrs by MTT assay; type: cell-based
[4] = target: T2, Tumor necrosis factor receptor superfamily member 6 (Homo sapiens) (UniProt P25445); test: Inhibition of s-CD95L(unknown origin)-stimulated cell migration of human MDA-MB-231 cells at 10 uM incubated for 24 hrs by Boyden chambers assay; type: cell-based
T2 sequence (whole entry): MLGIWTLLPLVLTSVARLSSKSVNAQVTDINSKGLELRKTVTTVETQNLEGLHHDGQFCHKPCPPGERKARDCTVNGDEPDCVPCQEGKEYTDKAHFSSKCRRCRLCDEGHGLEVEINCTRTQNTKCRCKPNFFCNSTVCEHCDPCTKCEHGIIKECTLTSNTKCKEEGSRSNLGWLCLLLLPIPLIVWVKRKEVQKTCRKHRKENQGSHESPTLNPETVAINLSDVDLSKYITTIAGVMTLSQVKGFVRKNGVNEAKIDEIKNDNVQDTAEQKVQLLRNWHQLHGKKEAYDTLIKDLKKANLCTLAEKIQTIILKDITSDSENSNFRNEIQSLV

[5] = target: T2, Tumor necrosis factor receptor superfamily member 6 (Homo sapiens); test: Inhibition of s-CD95L(unknown origin)-stimulated cell migration of human MDA-MB-231 cells at 10 uM incubated for 24 hrs by Giemsa-staining based assay
[6] = target: T2, Tumor necrosis factor receptor superfamily member 6 (Homo sapiens); test: Inhibition of s-CD95L(unknown origin)-stimulated cell migration of human Th17 cells at 10 uM incubated for 24 hrs by Boyden chambers assay
[7] = Half life in human whole blood; type: ADME, tissue-based
[8] = target: T2, Tumor necrosis factor receptor superfamily member 6 (Homo sapiens); test: Inhibition of s-CD95L(unknown origin)-stimulated cell migration of human MDA-MB-231 cells at 1 uM incubated for 24 hrs by Boyden chambers assay; type: cell-based
[9] = target: T2, Tumor necrosis factor receptor superfamily member 6 (Homo sapiens); test: Inhibition of s-CD95L(unknown origin)-stimulated cell migration of human MDA-MB-231 cells at 1 uM incubated for 24 hrs by Giemsa-staining based assay
[10] = target: T2, Tumor necrosis factor receptor superfamily member 6 (Homo sapiens); test: Inhibition of s-CD95L(unknown origin)-stimulated cell migration of human Th17 cells at 1 uM incubated for 24 hrs by Boyden chambers assay
[11] = target: T3, 1-phosphatidylinositol 4,5-bisphosphate phosphodiesterase gamma-1 (Homo sapiens, UniProt P19174); test: as §1; type: cell-based
T3 sequence (P19174 whole entry): T1 sequence (whole entry)

Molecule	IC50 [2] [µM]	IC50 ([3]; read-out: IC50) [µM]	Ratio IC50 (Homo sapiens)	also measured
N=C(N)NCCCCC(=O)N(CCNC(=O)[C@H](Cc1c[nH]cn1)N(CCNC(=O)[C@H](CCCNC(=N)N)N(CCN)C(=O)CCCC[C@@H]1SC[C@@H]2NC(=O)N[C@@H]21)C(=O)CCCCCN)[C@@H](CCCCN)C(N)=O	–	–	–	Activity [1]: Active
N=C(N)NCCCCC(=O)N(CCNC(=O)[C@@H](N)CS)[C@@H](CCCCN)C(=O)NCCN(C(=O)CCc1c[nH]cn1)[C@@H](CCCNC(=N)N)C(=O)NCCNC(=O)CCCCCN	400	448	1.1	–
C[C@@H](O)CC(=O)N[C@@H](CS)C(=O)NCCN(C(=O)CCCCNC(=N)N)[C@@H](CCCCN)C(=O)NCCN(C(=O)CCc1c[nH]cn1)[C@@H](CCCNC(=N)N)C(=O)NCCNC(=O)CCCCCN	308	629	2	–
C[C@@H](O)[C@H](NC(=O)CCCC[C@@H]1SC[C@@H]2NC(=O)N[C@@H]21)C(=O)NCCN(C(=O)CCS)[C@@H](CCCNC(=N)N)C(=O)NCCN(C(=O)CCCCCN)[C@@H](Cc1c[nH]cn1)C(=O)NCCN(C(=O)CCCCNC(=N)N)[C@@H](CCCCN)C(N)=O	–	–	–	EC50 [11]: 25 to 50 µM
C[C@@H](O)CC(=O)N(CCN)[C@@H](CS)C(=O)NCCN(C(=O)CCCCNC(=N)N)[C@@H](CCCCN)C(=O)NCCN(C(=O)CCc1c[nH]cn1)[C@@H](CCCNC(=N)N)C(=O)NCCNC(=O)CCCCCN	229	319	1.4	–

The next lines start with results.

IC50 [2] [µM]	IC50 ([3]; read-out: IC50) [µM]	Ratio IC50 (Homo sapiens)	Molecule	also measured
35	39	1.1	CCCCCCCCCCCCCCCCCC(=O)N(CCN)[C@@H](CCCNC(=N)N)C(=O)NCCN(C(=O)CCCCCN)[C@@H](Cc1c[nH]cn1)C(=O)NCCN(C(=O)CCCCNC(=N)N)[C@@H](CCCCN)C(N)=O.O=C(O)C(F)(F)F.O=C(O)C(F)(F)F.O=C(O)C(F)(F)F.O=C(O)C(F)(F)F.O=C(O)C(F)(F)F	Activity (CCRF-CEM): Toxic
75	3800	50	N=C(N)NCCCCC(=O)N(CCNC(=O)[C@H](Cc1c[nH]cn1)N(CCNC(=O)[C@H](CCCNC(=N)N)N(CCN)C(=O)CCS)C(=O)CCCCCN)[C@@H](CCCCN)C(N)=O	inhibition [4]: Active; inhibition [5]: Active; inhibition [6]: Active
35	–	> 100	H-TCRKHRK-OH	IC50 [3]: Not Active; half-life [7]: 180 to 204 min; inhibition [8]: Active; inhibition [9]: Active; inhibition [10]: Active
77	–	> 100	C[C@@H](O)[C@H](N)C(=O)NCCN(C(=O)CCS)[C@@H](CCCNC(=N)N)C(=O)NCCN(C(=O)CCCCCN)[C@@H](Cc1c[nH]cn1)C(=O)NCCN(C(=O)CCCCNC(=N)N)[C@@H](CCCCN)C(N)=O	IC50 [3]: Not Active; half-life [7]: 660 to 666 min; inhibition [4]: Active; inhibition [5]: Active; inhibition [6]: Active
